{"source": "the NIST ThermoML archive (doi:10.1016/j.tca.2016.05.007)", "assay": "Molar enthalpy of transition or fusion", "conditions": "Crystal; DSC", "note": "Numbers after ± are expanded uncertainties.", "data": [{"smiles": "COc1ccc(C2(c3ccc(OC)c(C)c3)OC(=O)c3ccccc32)cc1C", "note": "[3,3-bis(4-methoxy-3-methylphenyl)-1(3H)-isobenzofuranone]", "values": [{"measurement": "Molar enthalpy of transition or fusion", "value": "6.67 ± 0.143", "unit": "kcal/mol"}]}]}
